Reference: patent publication US11911397B2, “Anordrin compositions and methods for treating diseases” (Zhejiang Jiachi Development Pharmaceuticals LTD, priority 2014, dated 2024)

Columns and labels:
MCF-7 cells [1] = assay: glucose consumption and medium pH of MCF-7 cells; assay type: cell-based
[2] = test system: integrin β1 in MDA-MB-231 cells; assay: integrin β1 cell surface distribution and expression in MDA-MB-231 cells; assay type: cell-based; settings: 6 μM
Procedure: (§1) MCF-7 cells were harvested and lysed in RIPA buffer. 40 μg total protein of cellular lysate was used for Western blotting to determinate the expression level of integrin β1.
(§2) Integrin translocation to the cell surface is regulated by the p130Cas scaffold protein complex to play a fundamental role in cell attachment and migration. Integrin α3β1 has been reported to be involved in MCF-7 cell attachment as well as MDA-MB-231 cell migration (25, 26). […] To verify the hypothesis, we treated MCF-7 and MDA-MB-231 cells with 6 μM anordrin for 16 hours and measured cell surface integrin β1 distribution using a FITC-labeled anti-integrin β1 antibody. […] Taken together, we conclude that anordrin or analog thereof (such as […]) binds to membrane-associated ER to inhibit cell migration and proliferation.
(§3) Transwell and flow cytometry assay: Cells were starved for 48 hours in phenol red free medium containing 5% charcoal-stripped FBS, and then changed into phenol red free medium for an additional 24 hours. Transwell was performed following the Chemicon kit instructions (CAT #ECM551). Briefly, cells were trypsinized, washed using 1×DPBS containing Ca2+ and Mg2+ (Sigma) and resuspensed in serum and phenol red free medium at a cell density of 0.5×10^6 cells/ml. […]

Hec1A cells = assay: Hec1A cell proliferation; assay type: cell-based
GPER1 = molecular target: T1, GPER1 (Homo sapiens, UniProt Q99527); assay: 3H-E2 binding to GPER1 fusion protein expressed in HEK-293 cells; settings: 100 nM anordrin, 1 nM 3H-E2, HEK-293 lysate
T1 construct: expressed in transfected cells; host or cells: HEK-293
Procedure: (§4) Binding and competition assays: GST and GST-ER-α fusion proteins were expressed in E. coli and purified using glutathione beads. 2 μg/ml GST (40-80 nM) fusion proteins in 1 ml TE buffer was mixed with 1 nM ^3H-E2 at 4° C. for 2 h. Radioactivity on beads was measured using a GM meter. HEK-293 cells were transfected to express GST fusion proteins of ER-β or GPER1. Cells were lysed in 1×TE buffer containing protease inhibitor cocktail (sigma) on ice for 30 min, 80% glycerol was added to reach 20% glycerol. Tubes were centrifuged at 300 g for 5 min and supernatant was collected. Protein concentration was measured by Bio-rad protein concentration assay kit. 100 nM anordrin and 1 nM^3H-E2 was added to 1 ml lysate (5 mg/ml total protein) at 4° C. for 2 h. Radioactivity on beads was measured using GM meter.

ER-β = molecular target: T2, ER-β (Homo sapiens, UniProt Q92731); assay: 3H-E2 binding to ER-β fusion protein expressed in HEK-293 cells; settings: 100 nM anordrin, 1 nM 3H-E2, HEK-293 lysate
T2 construct: expressed in transfected cells; host or cells: HEK-293
Procedure: as §4

[3] = test system: patients whose cancers were potentially caused by EGF/Her1; settings: patients who failed to be inhibited by an EGF competitor; cited from earlier work
[4] = molecular target: T3, ER-α ligand binding domain (GST-ER-α-LBD) (Homo sapiens, UniProt P03372); assay: 3H-E2 competition assay on GST-ER-α-LBD beads
T3 construct: made in house; host or cells: E. coli
T3 sequence (P03372 311-547 limits assumed): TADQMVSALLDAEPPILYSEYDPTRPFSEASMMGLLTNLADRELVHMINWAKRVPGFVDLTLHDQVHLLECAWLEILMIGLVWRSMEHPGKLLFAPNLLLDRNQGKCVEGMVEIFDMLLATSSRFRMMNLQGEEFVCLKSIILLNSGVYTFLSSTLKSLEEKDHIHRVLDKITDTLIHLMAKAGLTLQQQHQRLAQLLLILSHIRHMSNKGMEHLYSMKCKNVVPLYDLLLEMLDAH

HepG2 cells = assay: HepG2 cell growth; assay type: cell-based
Ishikawa cells = assay: Ishikawa cell proliferation; assay type: cell-based
[5] = test system: BRCA1, ApoD, COX7a mRNA in MCF-7 cells; assay: RT-qPCR of genes regulated by the estrogen classic pathway in MCF-7 cells; assay type: cell-based
[6] = test system: integrin β1 in MCF-7 cells; assay: integrin β1 cell surface distribution and expression in MCF-7 cells; assay type: cell-based; settings: 6 μM
Procedure: as §1, §2, §3

normal mice = normal mice treated with tamoxifen, anordrin or both
[7] = test system: ovariectomized (OVX) mice; assay: ovariectomized (OVX) mice model; assay type: in vivo
[8] = test system: Bcl-2 expression in MCF-7 cells; assay: Bcl-2 expression in MCF-7 cells (western blotting, RT-qPCR); assay type: cell-based
MCF-7 cells [9] = assay: 2-NBDG glucose uptake and cellular ATP in MCF-7 cells; assay type: cell-based
Procedure: Glucose uptake was measured using fluorescently labeled glucose (2-NBDG), and ATP concentrations were measured using an ATP analysis kit.

[10] = test system: ERK phosphorylation in HepG2 cells; assay: phosphorylation of ERK in HepG2 cells; assay type: cell-based; settings: non-monotonic dose response
MDA-MB-231 cells [11] = assay: MDA-MB-231 cell migration (matrixgel / transwell); assay type: cell-based; settings: 6 μM anordrin
Procedure: As anordrin has been reported as an anti-angiogenic agent resulting in inhibition of cell migration and invasion (16), we studied its ability to modulate MDA-MB-231 cell migration using matrixgel. […] After 20 hours migrated cells were stained and quantified using a plate reader at 560 nm.

MCF-7 cells [12] = assay: MCF-7 cell growth, cell counting; assay type: cell-based
Procedure: To test this hypothesis we induced MCF-7 cells in IL-free medium for two months. Drug sensitivity of cell growth was tested by counting the cell number after 144 h of inoculation (FIG. 13A).

MDA-MB-231 cells [13] = assay: MDA-MB-231 cell growth, cell counting; assay type: cell-based; settings: 6 μM anordrin
[14] = test system: endometrial epithelial cells; assay: endometrial epithelial cells in mice (histology)
From the text: Preparation of paraffin sections and HE staining: The tissue of mice was excised by surgery and fixed using 2.5% formaldehyde in 1×PBS.

[15] = anordrin 0.45 μg/g in combination with tamoxifen 4.5 μg/g per day

T2 sequence (Q92731 whole entry, species assumed, the tested form may be a part): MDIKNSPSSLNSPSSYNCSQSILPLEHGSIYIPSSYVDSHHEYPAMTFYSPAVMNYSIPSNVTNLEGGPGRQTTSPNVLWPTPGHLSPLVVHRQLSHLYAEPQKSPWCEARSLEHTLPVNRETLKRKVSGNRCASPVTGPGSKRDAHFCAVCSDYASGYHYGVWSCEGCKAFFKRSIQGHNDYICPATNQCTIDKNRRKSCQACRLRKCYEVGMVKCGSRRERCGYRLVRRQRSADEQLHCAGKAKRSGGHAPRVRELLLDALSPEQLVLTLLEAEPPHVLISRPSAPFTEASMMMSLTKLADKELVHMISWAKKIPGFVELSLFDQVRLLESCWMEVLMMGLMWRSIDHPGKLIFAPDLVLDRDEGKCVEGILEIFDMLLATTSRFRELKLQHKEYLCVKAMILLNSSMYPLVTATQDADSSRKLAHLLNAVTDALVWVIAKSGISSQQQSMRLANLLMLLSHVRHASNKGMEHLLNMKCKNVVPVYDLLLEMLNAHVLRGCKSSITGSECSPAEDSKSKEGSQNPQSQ
T1 sequence (Q99527 whole entry, species assumed, the tested form may be a part): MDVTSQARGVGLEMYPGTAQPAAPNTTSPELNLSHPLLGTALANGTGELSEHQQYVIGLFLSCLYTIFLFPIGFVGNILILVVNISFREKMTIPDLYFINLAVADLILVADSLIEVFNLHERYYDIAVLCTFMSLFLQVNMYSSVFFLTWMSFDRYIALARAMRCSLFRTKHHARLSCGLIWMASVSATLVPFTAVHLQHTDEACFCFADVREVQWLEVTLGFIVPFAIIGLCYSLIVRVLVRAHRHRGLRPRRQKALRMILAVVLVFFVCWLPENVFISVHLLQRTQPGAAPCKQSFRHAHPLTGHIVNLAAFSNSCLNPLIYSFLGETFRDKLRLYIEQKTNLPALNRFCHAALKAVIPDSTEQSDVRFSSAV

For `C#C[C@@]1(OC(=O)CC)C[C@@H]2CC[C@@H]3[C@H](CC[C@@]4(C)[C@H]3CC[C@]4(C#C)OC(=O)CC)[C@@]2(C)C1` [anordrin, 2α,17α-diethynyl-A-nor-5α-androstane-2β,17β-diol dipropionate], the “effect on tamoxifen inhibition of glucose metabolism” value (MCF-7 cells [1]; 200 nM anordrin with 1 μM tamoxifen, MCF-7, 60 hours) was “reversed the inhibitory effect”, the “pH of culture medium” value (MCF-7 cells [1]; MCF-7 cells) was “decreased pH” and the “glucose concentration of media / glucose consumption” value (MCF-7 cells [1]; MCF-7 cells, 60 hours) was “lower”. For the same compound, the “expression level of integrin β1” value [2] was “did not affect”, the “integrin β1 distribution to the plasma membrane” value ([2]; 16 hours) was “down-regulated” and the doses inhibiting proliferation (Hec1A cells) was 2 to 8 µM. The “3H-E2 binding to GPER1 fusion protein” value (GPER1) was “inhibits”, the “3H-E2 binding to ER-β fusion protein” value (ER-β) was “inhibits” and the “quality of life and lifespan of patients” value [3] was “improve the quality of life and increase the lifespan”. For the same compound, the “inhibition of 3H-E2 binding to GST-ER-α-LBD” value ([4]; 50 nM compound, 0.5 nM 3H-E2, 2 μg GST-ER-α-LBD) was “could not inhibit”, the “blocking of [H^3-E2] binding to GST-ER-α-LBD on beads” value ([4]; 50 nM, 0.5 nM [H^3-E2], 1 μg GST-ER-α-LBD) was “no inhibition” and the “concentration showing the greatest degree of inhibition of cell growth” value (HepG2 cells) was “around 7 μM”. For the same compound, the “shape of dose response of cell growth inhibition” value (HepG2 cells) was “biphasic dose response”, the doses inhibiting proliferation (Ishikawa cells) was 2 to 8 µM and the “mRNA level of BRCA1” value [5] was “did not significantly affect”. For the same compound, the “expression level of integrin β1” value [6] was “did not affect”, the “integrin β1 distribution to the plasma membrane” value ([6]; 16 hours) was “down-regulated” and the “tamoxifen-induced NASH syndrome phenotype” value (normal mice; [15]) was “completely reversed”. The “tamoxifen-induced body weight phenotype” value (normal mice; [15]) was “completely reversed”, the “tamoxifen-induced liver TG phenotype” value (normal mice; [15]) was “completely reversed” and the “increased serum TG levels induced by tamoxifen” value (normal mice; mice) was “reverse”. For the same compound, the “increased serum viscosity induced by tamoxifen” value (normal mice; mice) was “reverse”, the “tamoxifen-induced uterine and vaginal atrophy” value (normal mice; tamoxifen treated mice) was “decrease the extent” and the “fat deposits in paraffin sections of liver” value ([7]; OVX mice) was “smaller fat deposits”. The body mass ([7]; OVX mice, after 6 weeks, intragastric) was “remained unchanged”, the “total cholesterol (TC) in liver” value ([7]; OVX mice, compared to controls) was “decreased amounts” and the “triglyceride (TG) in liver” value ([7]; OVX mice, compared to controls) was “decreased amounts”. For the same compound, the bone marrow cells ([7]; ovariectomized mice) was “prevent decrease”, the “serum Ca^2+” value ([7]; ovariectomized mice) was “increased” and the “serum Pi” value ([7]; ovariectomized mice) was “decreased”. The uterine atrophy ([7]; ovariectomized mice) was “prevent uterine atrophy”, the bone density ([7]; ovariectomized mice, micro-CT) was “increased” and the “increase of Bcl-2 mRNA transcription” value ([8]; 6 μM dinordrin, RT-qPCR) was 3.18%±3.22%. The “Bcl-2 mRNA expression” value ([8]; 7.5 μM, data not shown) was “not affected”, the Bcl-2 protein expression ([8]; 7.5 μM, western blotting) was “not affected” and the Bcl-2 protein expression ([8]; charcoal-stripped FBS in phenol red free DMEM) was “Neither tamoxifen nor anordrin or analog thereof (such as anordrin) were found to affect Bcl-2 protein expression”. The 2-NBDG uptake (MCF-7 cells [9]) was “enhanced”, the “cellular ATP concentrations” value (MCF-7 cells [9]) was “enhanced” and the “concentration of maximal phosphorylation of ERK” value [10] was 10 µM. The “MDA-MB-231 cell migration in medium containing E2” value (MDA-MB-231 cells [11]; 10 nM E2) was “significantly inhibited”, the “MDA-MB-231 cell migration in medium containing EGF” value (MDA-MB-231 cells [11]; 10 ng/ml EGF) was “significantly inhibited” and the “effect on the ability of tamoxifen to inhibit MCF-7 cell growth” value (MCF-7 cells [12]; 200 nM anordrin in the culture medium) was “did not affect”. For the same compound, the inhibition at 7.5 µM (MCF-7 cells [12]; Homo sapiens, MCF7, 7.5 μM) was over 50%, the MDA-MB-231 cell growth (MDA-MB-231 cells [13]) was “inhibits MDA-MB-231 cell growth significantly” and the “hypertrophy of endometrial epithelial cells” value [14] was “causes hypertrophy”. For the same compound, the “endometrial epithelial cell proliferation” value ([14]; monolayer vs polylayer) was “does not induce”.
